Measured values from patent publication US8012929B2, “Peptides directed for diagnosis and treatment of amyloid-associated diseases” (Tel Aviv University Future Technology Development L.P., priority 2002, dated 2011).
Square brackets hold non-standard residues; d marks the D form. Peptide text beside a SMILES is read from it. Aib = CC(C)(N)C(=O)O

How the values were obtained:
[1] = Serum stability, human serum (HPLC); type: in vitro ADME; conditions: 37° C., 2 and 5 hours
Description: D-Trp-Aib serum stability—Regardless of administration route, all drugs penetrate and distribute in the body via the blood system. This milieu is based not only on cells and buffering compounds, but also on proteins, carbohydrates, lipid-protein micelles, etc. Serum proteins mainly contain carrier proteins, such as albumin, but also contain many enzymes that might treat the drug as a substrate. Thus, the susceptibility of any drug entering this environment should be evaluated. The stability of D-Trp-Aib spiked into serum was evaluated by analysis of intact sample concentrations at different time points. D-Trp-Aib (250 μg/ml PBS) was incubated with mouse (Harlan Biotech, Israel) or human (obtained from Sheba medical center, Tel Hashomer, Israel) sera or PBS (1:1, 37° C.), and aliquots were analyzed by HPLC analysis at times 0, 2 and 5 hrs. The reaction was stopped and precipitation was effected by the addition of acetonitrile (Baker, Phillipsburg N.J.) and 10% TCA. Following centrifugation (10,000 g, 5 min), Supernatant was transferred to HPLC analysis. Mean amounts of D-Trp-Aib (μg)±s.e.m. were calculated by an internal calibration curve. […]

[2] = Membrane permeability in Caco-2 cell monolayer; type: in vitro ADME; conditions: human, apical to basolateral, read-out: recovery at the experimental end point
Experimental: Membrane permeability of D-Trp-Aib as studied in Caco-2 cells—The CaCo-2 system is based on the intestinal properties of the Caco-2 cells (ATCC Accession No. HTB-37), which preserved the polarity that is seen in the intestinal wall—an apical brush border that faces the intestinal lumen and a basolateral side that faces the body. After initial culturing (37° C. in an atmosphere of 5% CO2 and 100% humidity; medium: D-glucose DMEM supplemented with 1% Lglutamine, 1% nonessential amino acids, 1% sodium pyruvate, 1% penicillinstreptomycin, and 10% fetal bovine serum), cells were harvested and grown (14 days) on polycarbonate membranes, on which they formed a tight monolayer, (width of one cell, as in the intestine) allowing specific compounds to penetrate. […] D-Trp-Aib membrane permeability of the Caco-2 cell monolayer was assessed at concentrations of 0.2 mM and 1 mM, and compared to the standards propranolol (1 mM/apical buffer-see below) and ^3H-mannitol (5.26 Ci/mmole apical buffer—see below), known to pass via transcellular and paracellular routes, respectively. […] Substance samples and Propranolol standard were analyzed using HPLC. ^3H-Mannitol samples were subjected to analysis by liquid scintillation counting in a Packard TopCount NXT. […]

CYP450 1A2 = target: T1, CYP450 1A2 (Homo sapiens, UniProt P05177); assay: Human CYP450 screen 1A2; type: in vitro ADME
T1 sequence (P05177 1-516): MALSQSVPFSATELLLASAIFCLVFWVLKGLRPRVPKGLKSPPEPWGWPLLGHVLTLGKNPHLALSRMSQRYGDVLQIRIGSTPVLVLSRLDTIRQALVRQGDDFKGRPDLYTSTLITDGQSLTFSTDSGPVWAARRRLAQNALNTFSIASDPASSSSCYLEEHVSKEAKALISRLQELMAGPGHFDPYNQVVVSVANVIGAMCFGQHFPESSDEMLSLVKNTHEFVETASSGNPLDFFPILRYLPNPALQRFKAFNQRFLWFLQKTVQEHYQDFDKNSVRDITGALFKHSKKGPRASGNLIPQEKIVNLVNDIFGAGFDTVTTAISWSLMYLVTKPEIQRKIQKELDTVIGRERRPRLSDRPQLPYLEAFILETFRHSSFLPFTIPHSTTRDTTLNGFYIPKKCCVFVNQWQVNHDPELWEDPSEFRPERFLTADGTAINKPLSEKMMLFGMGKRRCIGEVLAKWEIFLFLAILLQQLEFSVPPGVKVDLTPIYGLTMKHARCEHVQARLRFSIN
Description: (§1) For the metabolic stability assay, Human cytochrom P450 (CYP450) screens were used. The cytochrom P450 isoenzymes, which are located in the intestines, liver, lung, kidney and brain, are involved in important drug interactions. Drug metabolism occurs in two phases—Phase I involves oxidation, reduction, and hydrolysis. Phase II involves synthesis and conjugation. The CYP 450 isoenzymes are involved in Phase I oxidative reactions. CYP 450 interactions generally result from one of two processes—Induction, where a substance stimulates the synthesis of the enzyme and metabolic capacity is increased, and inhibition, where competitive binding at an enzyme's binding site(s) occurs. A drug with a high affinity for an enzyme will slow the metabolism of any low affinity drug. CYP 3A3/4 is the most abundant CYP 450 isoenzyme in humans and is responsible for the metabolism of the widest range of drugs/substances. (CYP450) screens used were 1A2, 2C9, 2C19, 2D6 and 3A4.

CYP450 3A4 = CYP450 3A4 (Homo sapiens, UniProt P08684); assay: Human CYP450 screen 3A4; type: in vitro ADME
Chain of CYP450 3A4 (P08684 whole entry): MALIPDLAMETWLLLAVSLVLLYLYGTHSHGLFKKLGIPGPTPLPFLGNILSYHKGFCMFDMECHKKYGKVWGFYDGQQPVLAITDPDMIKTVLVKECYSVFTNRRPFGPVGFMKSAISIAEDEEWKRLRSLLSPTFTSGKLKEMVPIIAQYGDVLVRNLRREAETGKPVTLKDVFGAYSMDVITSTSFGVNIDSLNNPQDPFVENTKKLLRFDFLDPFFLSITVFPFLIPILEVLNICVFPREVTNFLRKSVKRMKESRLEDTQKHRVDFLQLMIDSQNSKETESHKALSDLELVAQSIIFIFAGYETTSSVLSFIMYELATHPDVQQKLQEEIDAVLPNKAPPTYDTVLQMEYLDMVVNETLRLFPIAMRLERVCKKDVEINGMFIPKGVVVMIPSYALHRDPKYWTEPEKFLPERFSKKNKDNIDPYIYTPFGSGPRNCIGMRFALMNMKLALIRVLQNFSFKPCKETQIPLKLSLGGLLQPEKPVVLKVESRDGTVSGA
Description: as §1

in vivo = conditions: CD-1, mouse
Experimental: Animals were treated following a 4 hour fast, with water ad libitum, and fed 2 hours after administration. Thereafter, animals were sacrificed at different time intervals (5 minutes-8 hours; 3 animals in each group, at every time interval were sacrificed by sodium pentobarbital anesthesia followed by exanguination) and blood (plasma), brain, liver, kidney and pancreas were collected and later analyzed. Plasma and brain tissue samples were analyzed by high-performance liquid chromatography with tandem mass spectrometry (LC-MS/MS).
In case of brain tissue, only AUC0-4 was calculated. All parameters were calculated using the software PK solutions Version 2.0 for Noncompartmental Pharmacokinetics Data analysis (Summit Research Services, Montrose, Colo.).

[3] = inhaled or intranasal, 20 mg/kg

Q: What does the source list for `CC(C)(NC(=O)[C@H](N)Cc1c[nH]c2ccccc12)C(=O)O` [D-Trp-Aib] (H-[dW]-[Aib]-OH)?
A: D-Trp-Aib concentration after incubation in serum [1]: No decrease; recovery at 90 min ([2]; 0.2 mM): 37.9%; recovery at 90 min, 1 mM ([2]; 1 mM): 19.3%; activity in CYP450 screen (CYP450 1A2): None of the results met significance criteria; activity in CYP450 screen (CYP450 3A4): None of the results met significance criteria; half-life (in vivo): 1.1 to 1.2 h; bioavailability (in vivo; inhaled or intranasal): 65.5%; AUC(0-inf) (in vivo; [3]): 11400 ng·h/mL; AUC(0-t) (in vivo; [3]): 10600 ng·h/mL; MRT (in vivo; [3]): 0.98 h; half-life (in vivo; [3]): 1.29 h; AUC(0-inf) (in vivo; iv, 50 mg/kg): 40600 ng·h/mL; AUC(0-t) (in vivo; iv, 50 mg/kg): 40600 ng·h/mL; MRT (in vivo; iv, 50 mg/kg): 0.44 h; Vd (in vivo; iv, 50 mg/kg): 2.16 L/kg; bioavailability (in vivo; iv, 50 mg/kg): 100%; clearance (in vivo; iv, 50 mg/kg): 20.5 mL/min/kg; half-life (in vivo; iv, 50 mg/kg): 1.22 h; AUC(0-inf) (in vivo; po, 50 mg/kg): 15700 ng·h/mL; AUC(0-t) (in vivo; po, 50 mg/kg): 15700 ng·h/mL; Cmax (in vivo; po, 50 mg/kg): 9810 ng/mL; MRT (in vivo; po, 50 mg/kg): 1.29 h; Tmax (in vivo; po, 50 mg/kg): 1 h; bioavailability (in vivo; po, 50 mg/kg): 38.7%; half-life (in vivo; po, 50 mg/kg): 1.07 h
